What was measured:
[1] = test system: Plasmodium falciparum; experiment: Antiplasmodial activity against chloroquine-sensitive Plasmodium falciparum 3D7 infected in human erythrocytes measured after 72 hrs by SYBR green 1 dye based fluorescence assay; assay type: functional, cell-based; conditions: 3D7, 72 h
[2] = test system: Plasmodium falciparum; experiment: Antiplasmodial activity against chloroquine-resistant Plasmodium falciparum K1 infected in human erythrocytes measured after 72 hrs by SYBR green 1 dye based fluorescence assay; assay type: functional, cell-based; conditions: K1, 72 h
[3] = Cytotoxicity against African green monkey Vero cells measured after 3 days by resazurin dye based fluorescence assay; assay type: cell-based; conditions: chlorocebus sabaeus
[4] = Selectivity index, ratio of CC50 for African green monkey Vero cells to IC50 for chloroquine-sensitive Plasmodium falciparum 3D7; assay type: toxicity; conditions: read-out: Ratio CC50/IC50
[5] = Selectivity index, ratio of CC50 for African green monkey Vero cells to IC50 for chloroquine-resistant Plasmodium falciparum K1; assay type: toxicity; conditions: read-out: Ratio CC50/IC50
[6] = Resistance index, ratio of IC50 for chloroquine-resistant Plasmodium falciparum K1 to IC50 for chloroquine-sensitive Plasmodium falciparum 3D7; assay type: functional

Row | SMILES | IC50 [1] | IC50 [2] | CC50 at 72 h [3] | selectivity ratio [4] | selectivity ratio [5] | Ratio IC50 [6]
1 | Cc1ccc(NC(=O)Cn2cc(Cn3cc(CCCC(=O)NC45CC6CC(CC(C6)C4)C5)c4ccccc43)nn2)cc1C | > 10 µM | 2.5 µM | > 250 µM | > 25 | > 100 | < 0.25
2 | O=C(CCCc1cn(S(=O)(=O)c2ccc(F)cc2)c2ccccc12)NC12CC3CC(CC(C3)C1)C2 | 2.94 µM | 3.73 µM | > 250 µM | > 85 | > 67 | 1.26
